Tests used:
[1] = system: HT-22 cells incubated with beta amyloid (Aβ25-35); experiment: Alleviating effect on beta amyloid toxicity in HT-22 cells (MTT); type: cell-based, murine; settings: Mus musculus, compound pre-incubated 1 hr, then 25 μM beta amyloid (Aβ25-35) for 18 hrs, Aβ25-35 line = toxin alone, read-out: Cell Survival (%)
Procedure: (§1) The murine hippocampal neuronal cell line HT-22 was incubated at 37° C. in DMEM (Dulbecco's Modified Eagle's Medium) supplemented with 10% FBS (fetal bovine serum) and 1% penicillin/streptomycin in a 5% CO2 incubator. Before testing, HT-22 cells were seeded at a density of 5×10^3 cells/well onto 96-well plates containing serum-free DMEM and incubated for 1 hr. Afterwards, each of the compounds of Examples 1 to 27 was added at a concentration of 25 μM to each well before incubation for 18 hrs. 5 mg/ml MTT (3-(4,5-dimethyl-2-thiozolyl)-2,5-diphenyl-2H-tetrazolium bromide) solution was added in an amount of 15 μl per well and incubated for 4 hrs. A solubilization solution (10% SDS, 50% dimethylformamide, pH 4.7) was added in an amount of 100 μl to each well, followed by incubation for 18 hrs. Absorbance at 570 nm/630 nm was read on a microplate reader.
The following experiment was performed in order to examine the ability of the compounds of the Examples in accordance with the present invention to alleviate beta amyloid toxicity. HT-22 cells were cultured and incubated with the compounds of Examples 1 to 27 for 1 hr in the same manner as in Example 2. Cell necrosis was induced by beta amyloid toxicity. For this, the cells were incubated with 25 μM of beta amyloid (Aβ25-35) for 18 hrs. Subsequently, a 5 mg/ml MTT solution was added in an amount of 15 μl to each well, followed by incubation for 4 hrs. Then, the cells were again incubated for 18 hrs with 100 μl/well of the solubilization solution. Absorbance at 570 nm/630 nm was read on a microplate reader.

beta amyloid (1-42) = beta amyloid (1-42) (Homo sapiens, UniProt P05067); experiment: Inhibitory activity against beta amyloid fibril formation (ThT fluorescence); type: biochemical; settings: for remaining activity at 10 µM: compound 10 μM, beta amyloid (1-42) 25 μM, 1 hr room temperature, beta amyloid alone (control) = 100
Sequence of beta amyloid (1-42) (P05067 672-713 limits assumed): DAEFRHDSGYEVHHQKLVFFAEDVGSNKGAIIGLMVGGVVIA
Procedure: The compounds of the present invention were assayed for inhibitory activity against the formation of beta amyloid fibrils as a function of ThT fluorescence intensity as follows. Beta amyloid (1-42) and each of the compounds of Examples 1 to 27 were dissolved in DMSO and diluted with PBS (phosphate-buffered saline, pH 7.4). The final concentrations of beta amyloid (1-42) (control) and each of the compounds of Examples 1 to 27 were set at 25 μM and 10 μM, respectively. The dilutions were incubated at room temperature for 1 hr before a solution of thioflavin T (ThT, 5 μM, pH 8.5) in glycin-NaOH buffer was added thereto. Fluorescence was measured at 450 nm for excitation (slit 10 nm) and […] for emission (slit 10 nm) on 96-well microplates using a multilabel fluorescence counter.

HT-22 cells = experiment: Cytotoxicity in HT-22 cell (MTT); type: cell-based, murine; settings: compound 25 μM, 18 hrs
Procedure: The following experiment was performed with HT-22 cells in order to examine the cytotoxicity of the compounds of the Examples in accordance with the present invention.
as §1

## COc1ccc(/C=C/c2cccc(/C=C/c3ccc(OC)c(O)c3)c2)cc1O [Ex. 3, (E,E)-1,3-Bis(3′-hydroxy-4′-methoxystyryl)benzene]
[1]
  viability at 25 µM: 54.7 ± 5.3%
Beta amyloid (1-42)
  remaining activity at 10 µM: 32.1 ± 1.1%
HT-22 cells
  Cell Survival (%): 69.5 ± 4.2%

## Oc1ccc(/C=C/c2cc(/C=C/c3ccc(O)cc3)ncn2)cc1 [Ex. 4, (E,E)-4,6-bis(4′-hydroxystyryl)pyrimidine]
[1]
  viability at 25 µM: 81 ± 1.2%
Beta amyloid (1-42)
  remaining activity at 10 µM: 35.7 ± 7%
HT-22 cells
  Cell Survival (%): 104.2 ± 7.1%

## Oc1cccc(/C=C/c2cc(/C=C/c3cccc(O)c3)ncn2)c1 [Ex. 5, (E,E)-4,6-bis(3′-hydroxystyryl)pyrimidine]
[1]
  viability at 25 µM: 43.5 ± 13.4%
Beta amyloid (1-42)
  remaining activity at 10 µM: 85.9 ± 19.7%
HT-22 cells
  Cell Survival (%): 142.5 ± 5.6%

## COc1nc(/C=C/c2ccc(O)cc2)cc(/C=C/c2ccc(O)cc2)n1 [Ex. 8, 2-methoxy-(E,E)-4,6-bis(4′-hydroxystyryl)pyrimidine]
[1]
  viability at 25 µM: 100 ± 7%
Beta amyloid (1-42)
  remaining activity at 10 µM: 32.6 ± 7.3%
HT-22 cells
  Cell Survival (%): 101.2 ± 31.8%

## COc1nc(/C=C/c2cccc(O)c2)cc(/C=C/c2cccc(O)c2)n1 [Ex. 9, 2-methoxy-(E,E)-4,6-bis(3′-hydroxystyryl)pyrimidine]
[1]
  viability at 25 µM: 47.7 ± 3.3%
Beta amyloid (1-42)
  remaining activity at 10 µM: 129 ± 11.6%
HT-22 cells
  Cell Survival (%): 45.9 ± 4.2%

## COc1nc(/C=C/c2ccc(O)c(OC)c2)cc(/C=C/c2ccc(O)c(OC)c2)n1 [Ex. 10, 2-methoxy-(E,E)-4,6-bis(4′-hydroxy-3′-methoxystyryl)pyrimidine]
[1]
  viability at 25 µM: 71.7 ± 14.8%
Beta amyloid (1-42)
  remaining activity at 10 µM: 32 ± 11.6%
HT-22 cells
  Cell Survival (%): 75.2 ± 12.5%

## COc1nc(/C=C/c2ccc(OC)c(O)c2)cc(/C=C/c2ccc(OC)c(O)c2)n1 [Ex. 11, 2-methoxy-(E,E)-4,6-bis(3′-hydroxy-4′-methoxystyryl)pyrimidine]
[1]
  viability at 25 µM: 66.2 ± 11.5%
Beta amyloid (1-42)
  remaining activity at 10 µM: 45 ± 9.2%
HT-22 cells
  Cell Survival (%): 98.4 ± 2.7%

## COc1nc(/C=C/c2ccc(O)c(N(C)C)c2)cc(/C=C/c2ccc(O)c(N(C)C)c2)n1 [Ex. 12, 2-methoxy-(E,E)-4,6-bis[4′-hydroxy-3′-(N,N-dimethylamino)styryl]pyrimidine]
[1]
  viability at 25 µM: 59 ± 5.7%
Beta amyloid (1-42)
  remaining activity at 10 µM: 25.9 ± 7.3%
HT-22 cells
  Cell Survival (%): 96.6 ± 13.7%

## COc1nc(/C=C/c2ccc(N(C)C)c(O)c2)cc(/C=C/c2ccc(N(C)C)c(O)c2)n1 [Ex. 13, 2-methoxy-(E,E)-4,6-bis[3′-hydroxy-4′-(N,N-dimethylamino)styryl]pyrimidine]
[1]
  viability at 25 µM: 67.4 ± 5.1%
Beta amyloid (1-42); Table 3
  Inhibitory activity against fibril formation (in words): remarkable inhibitory activity
Beta amyloid (1-42)
  remaining activity at 10 µM: 9.6 ± 3.7%
HT-22 cells
  Cell Survival (%): 101.4 ± 2.5%

## CSc1nc(/C=C/c2ccc(O)cc2)cc(/C=C/c2ccc(O)cc2)n1 [Ex. 14, 2-methylthio-(E,E)-4,6-bis(4′-hydroxystyryl)pyrimidine]
[1]
  viability at 25 µM: 34.2 ± 4%
Beta amyloid (1-42)
  remaining activity at 10 µM: 32.6 ± 7.4%
HT-22 cells
  Cell Survival (%): 65.3 ± 6.0%

## CSc1nc(/C=C/c2cccc(O)c2)cc(/C=C/c2cccc(O)c2)n1 [Ex. 15, 2-methylthio-(E,E)-4,6-bis(3′-hydroxystyryl)pyrimidine]
[1]
  viability at 25 µM: 39.6 ± 0.4%
Beta amyloid (1-42)
  remaining activity at 10 µM: 153 ± 16.3%
HT-22 cells
  Cell Survival (%): 43.7 ± 6.6%

## COc1cc(/C=C/c2cc(/C=C/c3ccc(O)c(OC)c3)nc(SC)n2)ccc1O [Ex. 16, 2-methylthio-(E,E)-4,6-bis(4′-hydroxy-3′-methoxystyryl)pyrimidine]
[1]
  viability at 25 µM: 49 ± 4.2%
Beta amyloid (1-42)
  remaining activity at 10 µM: 32.4 ± 12.5%
HT-22 cells
  Cell Survival (%): 79.0 ± 7.9%

## COc1ccc(/C=C/c2cc(/C=C/c3ccc(OC)c(O)c3)nc(SC)n2)cc1O [Ex. 17, 2-methylthio-(E,E)-4,6-bis(3′-hydroxy-4′-methoxystyryl)pyrimidine]
[1]
  viability at 25 µM: 78.3 ± 0.4%
Beta amyloid (1-42)
  remaining activity at 10 µM: 24.8 ± 11.1%
HT-22 cells
  Cell Survival (%): 78.8 ± 9.3%

## CSc1nc(/C=C/c2ccc(O)c(N(C)C)c2)cc(/C=C/c2ccc(O)c(N(C)C)c2)n1 [Ex. 18, 2-methylthio-(E,E)-4,6-bis[4′-hydroxy-3′-(N,N-dimethylamino)styryl]pyrimidine]
[1]
  viability at 25 µM: 50.9 ± 5.7%
Beta amyloid (1-42)
  remaining activity at 10 µM: 21.4 ± 10.3%
HT-22 cells
  Cell Survival (%): 77.3 ± 15.1%

## CSc1nc(/C=C/c2ccc(N(C)C)c(O)c2)cc(/C=C/c2ccc(N(C)C)c(O)c2)n1 [Ex. 19, 2-methylthio-(E,E)-4,6-bis[3′-hydroxy-4′-(N,N-dimethylamino)styryl]pyrimidine]
[1]
  viability at 25 µM: 69.7 ± 0.4%
Beta amyloid (1-42)
  remaining activity at 10 µM: 11.2 ± 4.2%
HT-22 cells
  Cell Survival (%): 85.3 ± 8.1%

## CN(C)c1cc(/C=C/c2cccc(/C=C/c3ccc(O)c(N(C)C)c3)c2)ccc1O [Ex. 20, (E,E)-1,3-bis[4′-hydroxy-3′-(N,N-dimethylamino)styryl]benzene]
[1]
  viability at 25 µM: 45.8 ± 9.1%
Beta amyloid (1-42)
  remaining activity at 10 µM: 36.1 ± 10.1%
HT-22 cells
  Cell Survival (%): 95.7 ± 8.3%

## CN(C)c1ccc(/C=C/c2cccc(/C=C/c3ccc(N(C)C)c(O)c3)c2)cc1O [Ex. 21, (E,E)-1,3-bis[3′-hydroxy-4′-(N,N-dimethylamino)styryl]benzene]
[1]
  viability at 25 µM: 52.8 ± 7.2%
Beta amyloid (1-42)
  remaining activity at 10 µM: 44 ± 8.3%
HT-22 cells
  Cell Survival (%): 100.8 ± 7.6%

## Oc1ccc(/C=C/c2cc(O)cc(/C=C/c3ccc(O)cc3)c2)cc1 [Ex. 22, (E,E)-3,5-bis(4′-hydroxystyryl)phenol]
[1]
  viability at 25 µM: 50.6 ± 10.1%
Beta amyloid (1-42)
  remaining activity at 10 µM: 19.3 ± 1.1%
HT-22 cells
  Cell Survival (%): 37.4 ± 4.7%

## Oc1cccc(/C=C/c2cc(O)cc(/C=C/c3cccc(O)c3)c2)c1 [Ex. 23, (E,E)-3,5-bis(3′-hydroxystyryl)phenol]
[1]
  viability at 25 µM: 47.7 ± 11.1%
Beta amyloid (1-42)
  remaining activity at 10 µM: 92.9 ± 12.4%
HT-22 cells
  Cell Survival (%): 59.2 ± 15.4%

## COc1cc(/C=C/c2cc(O)cc(/C=C/c3ccc(O)c(OC)c3)c2)ccc1O [Ex. 24, (E,E)-3,5-bis(4′-hydroxy-3′-methoxystyryl)phenol]
[1]
  viability at 25 µM: 39.9 ± 9.5%
Beta amyloid (1-42)
  remaining activity at 10 µM: 21 ± 2.4%
HT-22 cells
  Cell Survival (%): 80.9 ± 13.1%

## COc1ccc(/C=C/c2cc(O)cc(/C=C/c3ccc(OC)c(O)c3)c2)cc1O [Ex. 25, (E,E)-3,5-bis(3′-hydroxy-4′-methoxystyryl)phenol]
[1]
  viability at 25 µM: 43.2 ± 10%
Beta amyloid (1-42)
  remaining activity at 10 µM: 15.5 ± 3.8%
HT-22 cells
  Cell Survival (%): 73.5 ± 14.1%

## CN(C)c1cc(/C=C/c2cc(O)cc(/C=C/c3ccc(O)c(N(C)C)c3)c2)ccc1O [Ex. 26, (E,E)-3,5-bis[4′-hydroxy-3′-(N,N-dimethylamino)styryl]phenol]
[1]
  viability at 25 µM: 47.4 ± 0.6%
Beta amyloid (1-42)
  remaining activity at 10 µM: 25.8 ± 5.8%
HT-22 cells
  Cell Survival (%): 66.0 ± 12.1%

## CN(C)c1ccc(/C=C/c2cc(O)cc(/C=C/c3ccc(N(C)C)c(O)c3)c2)cc1O [Ex. 27, (E,E)-3,5-bis[3′-hydroxy-4′-(N,N-dimethylamino)styryl]phenol]
[1]
  viability at 25 µM: 50.5 ± 3.9%
Beta amyloid (1-42)
  remaining activity at 10 µM: 16.7 ± 0.7%
HT-22 cells
  Cell Survival (%): 64.4 ± 4.2%

Source: patent US8410116B2, “Bis(styryl)pyrimidine or bis(styryl)benzene compounds, pharmaceutically acceptable salts thereof, preparation method thereof, and pharmaceutical composition for prevention or treatment of diseases featuring amyloids comprising the same as an active ingredient” (Korea Institute of Science and Technology, priority 2009, dated 2013)
